From PubChem BioAssay (NCI) come the findings set out here.

What all share (test): inhibition of tumour cell growth, NCI panel, 48 h
The subject of assay [1] is CAKI-1 renal.
The test system of assay [2] is COLO 205 colon.
For assay [3], the system named is HL-60(TB) leukemia.
For assay [4], the system named is HOP-92 NSCLC.
Assay [5] concerns HS 578T breast.
Assay [6] concerns IGROV1 ovarian.
Assay [7] relates to KM12 colon.
The test system of assay [8] is M14 melanoma.
Assay [9] concerns MDA-N.
Assay [10] concerns NCI-H226 lung.
Assay [11] has as its system NCI-H522 lung.
The test system of assay [12] is NCI/ADR-RES ovarian.
The test system of assay [13] is OVCAR-5 ovarian.
Assay [14] relates to OVCAR-8 ovarian.
Assay [15] relates to PC-3 prostate.
Assay [16] relates to RXF 393 renal.
The test system of assay [17] is SK-MEL-5 melanoma.
The test system of assay [18] is SK-OV-3 ovarian.
Assay [19] relates to SNB-75 CNS.
Assay [20] relates to UO-31 renal.

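Following 48 hours of exposure in 96-well plates, responses at five concentrations were used to interpolate endpoints linearly. Definition used: TGI = concentration required for complete inhibition of growth.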 Where only a bound is given, the exact number is not on record here.

In the case of `CN(C)CCCNC(=O)CCNC(=O)c1cc(NC(=O)c2cc(NC(=O)c3cc(NC(=O)c4nccn4C)cn3C)cn2C)cn1C`, the TGI in [1], in [2], in assay [3], in [4], in assay [5] and in [6] was more than 100 µM throughout. For the same compound, the TGI in assay [7] was more than 100 µM; in assay [8] it was more than 100 µM; in [9], more than 100 µM; in assay [10] it was more than 100 µM; in assay [11], 97 µM; in [12], more than 100 µM. For the same compound, the TGI in assay [13], in assay [14], in assay [15], in assay [16], in assay [17] and in assay [18] was more than 100 µM in each case. Also, the TGI in [19] and in assay [20] was more than 100 µM each time.

As for `C[C@]12CC[C@H]3[C@@H](CC=C4C[C@@H](O)CC[C@@]43C)[C@@H]1C/C(=C/c1ccccc1)[C@@H]2O`, the TGI is more than 58.9 µM in [1]; 98.9 µM in [2]; more than 100 µM in assay [3]; more than 69.6 µM in assay [4]; 98 µM in assay [5]; 43.9 µM in assay [6]. Also, the TGI was more than 78.8 µM in [7]; more than 77.8 µM in [8]; 65.5 µM in assay [9]; 66.1 µM in assay [10]; more than 100 µM in assay [11]; more than 89.1 µM in assay [12]. In addition, the TGI in [13] is more than 76.5 µM; in [14] it was 52.1 µM; in assay [15], more than 57.2 µM; in [16] it was more than 57 µM; in assay [17], more than 100 µM; in [18], more than 66.7 µM. Further, the TGI was more than 68.5 µM in assay [19] and more than 62 µM in assay [20].

For `C=CCN1C[C@H](C)N([C@@H](c2ccc(C(=O)N3CCCCC3)cc2)c2cccc(OC)c2)C[C@H]1C`, the TGI in assay [1] was more than 100 µM; in [2] it was 30.6 µM; in [3], 21.5 µM; in assay [4], more than 100 µM; in assay [5] it was more than 100 µM; in assay [6], more than 100 µM. The TGI in [7] is more than 100 µM; in [8], 34.9 µM; in [9], more than 100 µM; in [10], more than 100 µM; in assay [11], 55 µM; in assay [12] it was more than 100 µM. The TGI in assay [13] was more than 100 µM; in assay [14], more than 100 µM; in assay [15], 72.2 µM; in assay [16], more than 100 µM; in assay [17], 33.6 µM; in [18] it was more than 100 µM. The TGI in assay [19] and in assay [20] was more than 100 µM each time.

For `COC(=O)c1ccccc1NC(=NC1CCCCCC1)NS(=O)(=O)c1ccc(C)cc1`, the TGI in [1], in [2], in assay [3], in assay [4], in assay [5] and in assay [6] was more than 100 µM throughout. Besides, the TGI in [7], in assay [8], in [9], in assay [10], in [11] and in assay [12] was more than 100 µM each time. In addition, the TGI in [13], in assay [14], in assay [15], in assay [16], in assay [17] and in assay [18] was more than 100 µM throughout. Besides, the TGI in assay [19] and in assay [20] was more than 100 µM in each case.

In the case of `CCOC(=O)C1C(C)C2(C#N)C(=N)OC1(C)C2(C#N)C#N` (stereo not given), the TGI in assay [1] was more than 100 µM; in assay [2], more than 100 µM; in assay [3], 60.3 µM; in assay [4] it was 97.1 µM; in assay [5] it was more than 100 µM; in [6] it was more than 100 µM. Besides, the TGI in assay [7], in assay [8], in [9], in assay [10], in [11] and in assay [12] was more than 100 µM throughout. Also, the TGI in assay [13] was more than 100 µM; in assay [14], more than 100 µM; in [15] it was more than 100 µM; in assay [16] it was 92.7 µM; in assay [17] it was 98.5 µM; in assay [18], more than 100 µM. The TGI in assay [19] and in assay [20] was more than 100 µM each time.
